Measured values: patent US10501481B2, “Heterocyclic compounds and their use in preventing or treating bacterial infections” (priority 2015, dated 2019)

Tests used:
[1] = tested on: E. coli UFR52 (TEM-1, SHV-12, IMP-8); assay: MIC broth microdilution, alone and synergy with ceftazidime; settings: for MIC: Escherichia coli, read-out: MIC compounds of the invention alone
[2] = tested on: K. pneumoniae 160143 (TEM-1, SHV-1, CTX-M-15, KPC-2, OXA-1); assay: as above; settings: for MIC of CAZ in combination with compound at 4 μg/mL: strain 160143, compound fixed at 4 μg/mL
[3] = tested on: E. coli 190317 (TEM-1, SHV-12, CTX-M-15, OXA-1); assay: as above; settings: for MIC of CAZ in combination with compound at 4 μg/mL: strain 190317, compound fixed at 4 μg/mL
[4] = tested on: K. oxytoca UFR21 (TEM-1, CTX-M-15, OXA-48); assay: as above; settings: for MIC: Klebsiella oxytoca, read-out: MIC compounds of the invention alone; for MIC of CAZ in combination with compound at 4 μg/mL: strain UFR21, compound fixed at 4 μg/mL
[5] = tested on: E. cloacae UFR70 (TEM-1, CTX-M-15, CMY-2, OXA-1, Porin loss); assay: as above; settings: for MIC of CAZ in combination with compound at 4 μg/mL: strain UFR70, compound fixed at 4 μg/mL
[6] = tested on: E. cloacae UFR38 (CTX-M-15, NDM-1); assay: as above; settings: for MIC: Enterobacter cloacae, read-out: MIC compounds of the invention alone; for MIC of CAZ in combination with compound at 4 μg/mL: strain UFR38, compound fixed at 4 μg/mL
OXA-48 = target: T1, OXA-48 (Klebsiella pneumoniae, UniProt Q6XEC0); assay: β-lactamase inhibitory activity, nitrocefin hydrolysis; format: biochemical
T1 construct: made in house; host or cells: E. coli
T1 sequence (Q6XEC0 23-265 limits assumed): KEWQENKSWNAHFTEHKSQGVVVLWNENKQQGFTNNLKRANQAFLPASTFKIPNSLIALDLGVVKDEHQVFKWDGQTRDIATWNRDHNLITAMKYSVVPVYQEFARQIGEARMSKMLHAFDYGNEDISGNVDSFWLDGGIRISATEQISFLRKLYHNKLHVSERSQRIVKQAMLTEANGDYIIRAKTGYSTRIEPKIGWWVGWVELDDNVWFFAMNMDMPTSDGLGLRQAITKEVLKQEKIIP
Method: (§1) Enzyme activity was monitored by spectrophotometric measurement of nitrocefin (NCF-TOKU-E, N005) hydrolysis at 485 nm, at room temperature and in assay buffer A: 100 mM Phosphate pH7, 2% glycerol and 0.1 mg/mL Bovine serum albumin (Sigma, B4287). […] To a transparent polystyrene plate (Corning, 3628) were added in each well 5 μL DMSO or inhibitor dilutions in DMSO and 80 μL enzyme in buffer A. Plates were immediately read at 485 nm in a microplate spectrophotometer (BioTek, PowerWave HT) to enable background subtraction. After 30 min of pre-incubation at room temperature, 15 μL of NCF (200 μM final) were finally added in each well. Final enzyme concentrations were 0.1 nM (TEM-1), 0.075 nM (SHV-1), 0.4 nM (CTX-M-15), 1 nM (KPC-2), 0.2 nM (P99 AmpC), 0.2 nM (CMY-37), 0.4 nM (AmpC P. aeruginosa), 0.2 nM (OXA-1), 1.2 nM (OXA-11), 0.4 nM (OXA-15) and 0.3 nM (OXA-48). After 20 min incubation at room temperature, plates were once again read at 485 nm. Enzyme activity was obtained by subtracting the final signal by the background, and was converted to enzyme inhibition using non inhibited wells. IC50 curves were fitted to a classical Langmuir equilibrium model with Hill slope using XLFIT (IDBS).

[7] = tested on: P. aeruginosa CIP107051 (TEM-24); assay: MIC broth microdilution, alone and synergy with ceftazidime; settings: for MIC: Pseudomonas aeruginosa, CIP107051, read-out: MIC compounds of the invention alone; for MIC of CAZ in combination with compound at 4 μg/mL: strain CIP107051, compound fixed at 4 μg/mL
[8] = tested on: E. cloacae UFR85 (TEM-1, CTX-M-15, derepressed AmpC); assay: as above; settings: for MIC of CAZ in combination with compound at 4 μg/mL: strain UFR85, compound fixed at 4 μg/mL
[9] = tested on: E. coli UFR74 (SHV-1, DHA-1); assay: as above; settings: for MIC: Escherichia coli, read-out: MIC compounds of the invention alone; for MIC of CAZ in combination with compound at 4 μg/mL: strain UFR74, compound fixed at 4 μg/mL
[10] = tested on: E. coli 131119 (TEM-1, OXA-48); assay: as above; settings: for MIC: Escherichia coli, read-out: MIC compounds of the invention alone; for MIC of CAZ in combination with compound at 4 μg/mL: strain 131119, compound fixed at 4 μg/mL
[11] = tested on: K. pneumoniae UFR24 (TEM-1, SHV-2, SHV-11, OXA-1, OXA-48, OXA-47); assay: as above; settings: for MIC of CAZ in combination with compound at 4 μg/mL: strain UFR24, compound fixed at 4 μg/mL
OXA-11 = target: T2, OXA-11 (Pseudomonas aeruginosa, UniProt Q06778); assay: β-lactamase inhibitory activity, nitrocefin hydrolysis; format: biochemical
T2 construct: made in house; host or cells: E. coli
T2 sequence (Q06778 21-266): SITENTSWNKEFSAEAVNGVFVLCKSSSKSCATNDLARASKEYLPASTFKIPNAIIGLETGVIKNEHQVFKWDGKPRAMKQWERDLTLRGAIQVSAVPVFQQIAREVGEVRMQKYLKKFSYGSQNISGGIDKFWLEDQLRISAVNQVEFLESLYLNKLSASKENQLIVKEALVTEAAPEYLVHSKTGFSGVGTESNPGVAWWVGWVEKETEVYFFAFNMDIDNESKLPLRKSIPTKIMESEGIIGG
Method: as §1

[12] = tested on: E. coli UFR61O (TEM-1, KPC-2); assay: MIC broth microdilution, alone and synergy with ceftazidime; settings: for MIC: Escherichia coli, read-out: MIC compounds of the invention alone; for MIC of CAZ in combination with compound at 4 μg/mL: strain UFR61O, compound fixed at 4 μg/mL
TEM-1 = target: T3, TEM-1 (Escherichia coli, UniProt P62593); assay: β-lactamase inhibitory activity, nitrocefin hydrolysis; format: biochemical; settings: class (A); 30 min pre-incubation; nitrocefin 200 μM
T3 construct: made in house; host or cells: E. coli
T3 sequence (P62593 24-286 limits assumed): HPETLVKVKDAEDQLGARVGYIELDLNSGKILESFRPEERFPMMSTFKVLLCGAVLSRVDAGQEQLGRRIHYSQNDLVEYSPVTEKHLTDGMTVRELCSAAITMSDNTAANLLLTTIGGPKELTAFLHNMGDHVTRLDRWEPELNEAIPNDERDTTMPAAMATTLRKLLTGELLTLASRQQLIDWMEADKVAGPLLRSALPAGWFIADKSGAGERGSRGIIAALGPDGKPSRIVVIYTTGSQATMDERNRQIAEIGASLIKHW

OXA-1 = target: T4, OXA-1 (Escherichia coli, UniProt P13661); assay: as above; format: biochemical
T4 construct: made in house; host or cells: E. coli
T4 sequence (P13661 26-276): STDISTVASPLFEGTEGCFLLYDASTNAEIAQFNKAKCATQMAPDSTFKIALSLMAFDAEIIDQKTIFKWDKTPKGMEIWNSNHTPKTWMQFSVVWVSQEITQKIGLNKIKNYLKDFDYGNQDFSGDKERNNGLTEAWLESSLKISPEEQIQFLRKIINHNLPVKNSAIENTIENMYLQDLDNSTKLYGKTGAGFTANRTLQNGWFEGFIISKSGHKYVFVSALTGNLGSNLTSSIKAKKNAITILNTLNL

[13] = tested on: E. coli UFR18 (CTX-M-15, OXA-204); assay: MIC broth microdilution, alone and synergy with ceftazidime; settings: for MIC: Escherichia coli, read-out: MIC compounds of the invention alone; for MIC of CAZ in combination with compound at 4 μg/mL: strain UFR18, compound fixed at 4 μg/mL
[14] = tested on: P. aeruginosa CIP105250 (OXA-15); assay: MIC broth microdilution, compounds alone; settings: Pseudomonas aeruginosa, CIP105250, read-out: MIC compounds of the invention alone
SHV-1 = target: T5, SHV-1 (Klebsiella pneumoniae, UniProt P0AD64); assay: β-lactamase inhibitory activity, nitrocefin hydrolysis; format: biochemical
T5 construct: made in house; host or cells: E. coli
T5 sequence (P0AD64 22-286): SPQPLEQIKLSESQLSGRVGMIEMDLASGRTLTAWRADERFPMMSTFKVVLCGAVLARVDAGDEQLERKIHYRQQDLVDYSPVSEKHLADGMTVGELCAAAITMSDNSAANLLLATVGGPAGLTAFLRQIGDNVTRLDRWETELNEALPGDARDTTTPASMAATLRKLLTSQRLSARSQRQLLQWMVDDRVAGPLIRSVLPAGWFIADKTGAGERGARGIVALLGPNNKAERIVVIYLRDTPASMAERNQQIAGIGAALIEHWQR

KPC-2 = target: T6, KPC-2 (Klebsiella pneumoniae, UniProt Q9F663); assay: as above; format: biochemical
T6 construct: made in house; host or cells: E. coli
T6 sequence (Q9F663 25-293 limits assumed): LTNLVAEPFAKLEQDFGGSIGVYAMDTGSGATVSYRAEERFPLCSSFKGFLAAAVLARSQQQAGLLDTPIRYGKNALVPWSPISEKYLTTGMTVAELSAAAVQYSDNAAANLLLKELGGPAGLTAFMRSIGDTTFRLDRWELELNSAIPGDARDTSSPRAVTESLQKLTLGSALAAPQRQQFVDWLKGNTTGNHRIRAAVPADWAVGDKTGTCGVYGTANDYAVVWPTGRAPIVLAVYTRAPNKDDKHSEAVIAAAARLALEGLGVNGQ
Method: as §1

P99 AmpC = target: T7, P99 AmpC (Enterobacter cloacae, UniProt P05364); assay: as above; format: biochemical; settings: class (C); 30 min pre-incubation; nitrocefin 200 μM
T7 construct: made in house; host or cells: E. coli
T7 sequence (P05364 21-381): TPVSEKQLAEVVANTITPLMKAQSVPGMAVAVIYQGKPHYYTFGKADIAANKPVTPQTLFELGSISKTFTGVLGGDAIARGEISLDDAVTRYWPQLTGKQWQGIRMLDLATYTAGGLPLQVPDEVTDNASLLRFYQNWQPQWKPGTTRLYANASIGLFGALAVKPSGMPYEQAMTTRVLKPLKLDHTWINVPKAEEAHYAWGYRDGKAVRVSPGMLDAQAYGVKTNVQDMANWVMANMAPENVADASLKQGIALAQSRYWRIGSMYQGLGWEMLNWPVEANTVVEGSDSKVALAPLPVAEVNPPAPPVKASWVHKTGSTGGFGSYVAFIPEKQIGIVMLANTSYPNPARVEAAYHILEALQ

[15] = tested on: K. pneumoniae BAA-1898 (TEM-1, SHV-11, SHV-12, KPC-2); assay: microbe, parasite or virus in culture; format: cell-based; settings: for MIC: Klebsiella pneumoniae, BAA1898, read-out: MIC compounds of the invention alone
[16] = tested on: E. coli UFR32 (TEM-1, VEB-1, OXA-10); assay: MIC broth microdilution, alone and synergy with ceftazidime; settings: for MIC of CAZ in combination with compound at 4 μg/mL: strain UFR32, compound fixed at 4 μg/mL
[17] = tested on: K. pneumoniae UFR77 (CMY-2); assay: as above; settings: for MIC: Klebsiella pneumoniae, read-out: MIC compounds of the invention alone; for MIC of CAZ in combination with compound at 4 μg/mL: strain UFR77, compound fixed at 4 μg/mL
CTX-M-15 = target: T8, CTX-M-15 (Escherichia coli, UniProt Q9EXV5); assay: β-lactamase inhibitory activity, nitrocefin hydrolysis; format: biochemical
T8 construct: made in house; host or cells: E. coli
T8 sequence (Q9EXV5 entry or part of it): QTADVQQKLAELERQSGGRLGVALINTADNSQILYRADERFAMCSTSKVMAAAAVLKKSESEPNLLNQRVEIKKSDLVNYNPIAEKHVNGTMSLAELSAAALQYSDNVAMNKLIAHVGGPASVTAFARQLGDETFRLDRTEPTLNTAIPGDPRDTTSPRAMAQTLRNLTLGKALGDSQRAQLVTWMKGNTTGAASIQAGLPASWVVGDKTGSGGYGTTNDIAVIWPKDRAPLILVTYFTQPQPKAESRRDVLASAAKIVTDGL
Method: as §1

[18] = tested on: K. pneumoniae 6299 (TEM-1, SHV-11, OXA-163); assay: MIC broth microdilution, alone and synergy with ceftazidime; settings: for MIC: Klebsiella pneumoniae, read-out: MIC compounds of the invention alone; for MIC of CAZ in combination with compound at 4 μg/mL: strain 6299, compound fixed at 4 μg/mL
E. coli RGN238 (OXA-1) = assay: as above; settings: for MIC: Escherichia coli, read-out: MIC compounds of the invention alone; for MIC of CAZ in combination with compound at 4 μg/mL: strain RGN238, compound fixed at 4 μg/mL
[19] = tested on: K. pneumoniae UFR68 (TEM-1, SHV-11, CTX-M-15, KPC-3); assay: as above; settings: for MIC of CAZ in combination with compound at 4 μg/mL: strain UFR68, compound fixed at 4 μg/mL
[20] = tested on: K. pneumoniae 200047 (TEM-1, SHV-32, CTX-M-15, OXA-1); assay: as above; settings: for MIC of CAZ in combination with compound at 4 μg/mL: strain 200047, compound fixed at 4 μg/mL
[21] = Klebsiella pneumoniae, read-out: MIC compounds of the invention alone
[22] = Escherichia coli, read-out: MIC compounds of the invention alone
[23] = Enterobacter cloacae, read-out: MIC compounds of the invention alone

SMILES: COC(=O)Cn1c2c(sc1=O)C1CN(C2)C(=O)N1OS(=O)(=O)[O-].[Na+] (stereo not shown) [Example 2, Sodium [5-(2-methoxy-2-oxo-ethyl)-4,9-dioxo-3-thia-5,8,10-triaza-tricyclo[6.2.1.0^2.6]undec-2(6)-en-10-yl] sulfate]
- MIC [1]: 8 µg/mL
- MIC [2, 21]: 16 µg/mL
- MIC of CAZ in combination with compound at 4 μg/mL [2]: 8 µg/mL
- MIC of CAZ in combination with compound at 4 μg/mL [3]: <0.25 µg/mL
- MIC [4]: 8 µg/mL
- MIC of CAZ in combination with compound at 4 μg/mL [4]: 16 µg/mL
- MIC of CAZ in combination with compound at 4 μg/mL [5]: 1 µg/mL
- MIC [6]: 8 µg/mL
- MIC of CAZ in combination with compound at 4 μg/mL [6]: >128 µg/mL
- IC50 (OXA-48): 0.67 nM
- MIC [7]: > 32 µg/mL
- MIC of CAZ in combination with compound at 4 μg/mL [7]: 16 µg/mL
- MIC of CAZ in combination with compound at 4 μg/mL [8]: 16 µg/mL
- MIC [9]: 8 µg/mL
- MIC of CAZ in combination with compound at 4 μg/mL [9]: 1 µg/mL
- MIC [10]: 2 µg/mL
- MIC of CAZ in combination with compound at 4 μg/mL [10]: <0.25 µg/mL
- MIC [11, 21]: 16 µg/mL
- MIC of CAZ in combination with compound at 4 μg/mL [11]: 4 µg/mL
- IC50 (OXA-11): 4.1 nM
- MIC [12]: 8 µg/mL
- MIC of CAZ in combination with compound at 4 μg/mL [12]: <0.25 µg/mL
- IC50 (TEM-1): 0.64 nM
- IC50 (OXA-1): 38 nM
- MIC [13]: 4 µg/mL
- MIC of CAZ in combination with compound at 4 μg/mL [13]: 0.5 µg/mL
- MIC [14]: > 32 µg/mL
- IC50 (SHV-1): 1.3 nM
- IC50 (KPC-2): 1.3 nM
- IC50 (P99 AmpC): 16 nM
- MIC [15]: 32 µg/mL
- MIC of CAZ in combination with compound at 4 μg/mL [16]: <0.25 µg/mL
- MIC [17]: 4 µg/mL
- MIC of CAZ in combination with compound at 4 μg/mL [17]: 0.25 µg/mL
- IC50 (CTX-M-15): 1.1 nM
- MIC [18]: 8 µg/mL
- MIC of CAZ in combination with compound at 4 μg/mL [18]: 4 µg/mL
- MIC (E. coli RGN238 (OXA-1)): 1 µg/mL
- MIC of CAZ in combination with compound at 4 μg/mL (E. coli RGN238 (OXA-1)): <0.25 µg/mL
- MIC [19, 21]: 32 µg/mL
- MIC of CAZ in combination with compound at 4 μg/mL [19]: 32 µg/mL
- MIC of CAZ in combination with compound at 4 μg/mL [20]: <0.25 µg/mL

SMILES: NCCn1c2c(sc1=O)C1CN(C2)C(=O)N1OS(=O)(=O)[O-].[Na+] (stereo not shown) [Example 4, Sodium and 2,2,2-trifluoroacetate [5-(2-azaniumethyl)-4,9-dioxo-3-thia-5,8,10-triaza-tricyclo[6.2.1.0^2.6]undec-2(6)-en-10-yl] sulfate]
- MIC [1]: 2 µg/mL
- MIC of CAZ in combination with compound at 4 μg/mL ([1]; strain UFR52, compound fixed at 4 μg/mL): <0.25 µg/mL
- MIC of CAZ in combination with compound at 4 μg/mL [2]: ≤0.25 µg/mL
- MIC [3, 22]: 1 µg/mL
- MIC of CAZ in combination with compound at 4 μg/mL [3]: <0.25 µg/mL
- MIC [4]: 4 µg/mL
- MIC of CAZ in combination with compound at 4 μg/mL [4]: <0.25 µg/mL
- MIC [5, 23]: 4 µg/mL
- MIC of CAZ in combination with compound at 4 μg/mL [5]: <0.25 µg/mL
- MIC [6]: 0.5 µg/mL
- MIC of CAZ in combination with compound at 4 μg/mL [6]: <0.25 µg/mL
- IC50 (OXA-48): 4.1 nM
- MIC [7]: 16 µg/mL
- MIC of CAZ in combination with compound at 4 μg/mL [7]: 4 µg/mL
- MIC [8, 23]: 2 µg/mL
- MIC of CAZ in combination with compound at 4 μg/mL [8]: <0.25 µg/mL
- MIC [9]: 16 µg/mL
- MIC of CAZ in combination with compound at 4 μg/mL [9]: ≤0.25 µg/mL
- MIC [10]: 2 µg/mL
- MIC of CAZ in combination with compound at 4 μg/mL [10]: <0.25 µg/mL
- MIC of CAZ in combination with compound at 4 μg/mL [11]: ≤0.25 µg/mL
- IC50 (OXA-11): 82 nM
- MIC [12]: 4 µg/mL
- MIC of CAZ in combination with compound at 4 μg/mL [12]: <0.25 µg/mL
- IC50 (TEM-1): 4.6 nM
- IC50 (OXA-1): 460 nM
- MIC [13]: 0.5 µg/mL
- MIC of CAZ in combination with compound at 4 μg/mL [13]: <0.25 µg/mL
- MIC [14]: 8 µg/mL
- IC50 (SHV-1): 21 nM
- IC50 (KPC-2): 7.4 nM
- IC50 (P99 AmpC): 140 nM
- MIC [15]: 16 µg/mL
- MIC of CAZ in combination with compound at 4 μg/mL ([15]; strain BAA-1898, compound fixed at 4 μg/mL): ≤0.125 µg/mL
- MIC [16, 22]: 1 µg/mL
- MIC of CAZ in combination with compound at 4 μg/mL [16]: <0.25 µg/mL
- MIC [17]: 16 µg/mL
- MIC of CAZ in combination with compound at 4 μg/mL [17]: ≤0.25 µg/mL
- IC50 (CTX-M-15): 1.3 nM
- MIC [18]: 32 µg/mL
- MIC of CAZ in combination with compound at 4 μg/mL [18]: ≤0.125 µg/mL
- MIC (E. coli RGN238 (OXA-1)): 8 µg/mL
- MIC of CAZ in combination with compound at 4 μg/mL (E. coli RGN238 (OXA-1)): <0.25 µg/mL
- MIC of CAZ in combination with compound at 4 μg/mL [19]: <0.25 µg/mL
- MIC [20, 21]: 8 µg/mL
- MIC of CAZ in combination with compound at 4 μg/mL [20]: <0.25 µg/mL
